Results: patent US20220041578A1, “ISOINDOLINE COMPOUND, AND PREPARATION METHOD, PHARMACEUTICAL COMPOSITION, AND APPLICATION OF ISOINDOLINE COMPOUND” (Shanghai Institute of Meteria Medica, Chinese Academy of …, priority 2018, published 2022)
pIC50: −log10 of the molar value.

What was measured:
[1] = test system: Mino cells; test: Effect of the compound on the proliferation of Mino cells (MTS); type: cell-based; conditions: Homo sapiens, 72 h, 3 days, read-out: Inhibitory activity (IC50)
Method: Mino cells were cultured with 1640 plus […] and collected. The cell concentration was diluted according to the action time of 3 days, and 90 ul cell suspension was added to each well of the 96-well cell plate to make the cell count to be 8000. 10 ul of DMSO with a final concentration of 0.2% was added to the control cell wells. The compound was diluted 5-fold with the 10 mM stock solution, and 10 ul was also added to the compound cell wells (the final concentration of DMSO was 0.2%). The cells were placed in a 37° C., […] incubator and incubated for 3 days. After preparing the reaction solution according to the MTS kit (Promega, G5430), 20 μL was added to each well, incubated in a 37° C., 5% CO2 incubator for 3-4 h. Read the 490 nm absorbance value with a microtiter plate, and used the 690 nm absorbance value as the background value and OD490-OD690 as the final initial data. The formula for calculating the inhibition rate of the compound was: inhibition rate=(OD DMSO-ODcompound)/(ODDMSO-Oblank)×100%. The compound's proliferation inhibition IC50 was fitted by Graph Pad Prism 5.0. The experiment was repeated three times, and three parallel experiments were used to calculate the average and standard deviation each time.

[2] = test system: MM.1S cells; test: Effect of the compound on the proliferation of MM.1S cells (MTS); type: cell-based; conditions: Homo sapiens, MM1.S, 168 h, 7 days, read-out: Cell inhibitory activity (IC50)
Method: MM.1S cells were cultured with 1640 plus 10% fetal bovine serum and collected. The cell concentration was diluted according to the action time of 7 days, and 180 ul cell suspension was added to each well of the 96-well cell plate to make the cell count to be 20,000. 20 ul of DMSO with a final concentration of 0.2% was added to the control cell wells. The compound was diluted 5-fold with the 10 mM stock solution, and 20 ul was also added to the compound cell wells (the final concentration of DMSO is 0.2%). The cells were placed in a 37° C., 5% CO2 incubator and incubated for 7 days. After preparing the reaction solution according to the MTS kit (Promega, G5430), 20 μL was added to each well, incubated in a 37° C., 5% CO2 incubator for 3-4 h. Read the 490 nm absorbance value with a microtiter plate, and used the 690 nm absorbance value as the background value and OD490-OD690 as the final initial data. The formula for calculating the inhibition rate of the compound is: inhibition rate=(OD DMSO-ODcompound)/(ODDMSO-Oblank)×100%. The compound's proliferation inhibition IC50 was fitted by Graph Pad Prism 5.0. The experiment was repeated three times, and three parallel experiments were used to calculate the average and standard deviation each time.

Row | Compound | pIC50 [1] | pIC50 [2]
1 | O=C1CCC(N2Cc3c(NCc4cnc(-c5cccc(OC(F)(F)F)c5)o4)cccc3C2=O)C(=O)N1 (stereo not shown) [Compound 90] | > 6.82 | > 6.82
2 | O=C1CCC(N2Cc3c(OCc4cn(-c5ccc6ncsc6c5)nn4)cccc3C2=O)C(=O)N1 (stereo not shown) [Compound 23, 3-(4-((1-(benzo [d]thiazol-6)-1H-1,2,3-triazol-4-(methoxy)-1-oxoisoindolin-2-)piperidine-2,6-dione] | > 6.82 | > 6.82
3 | O=C1CCC(N2Cc3c(NCc4ncc(-c5ccc(OC(F)(F)F)cc5)o4)cccc3C2=O)C(=O)N1 (stereo not shown) [Compound 93] | 4.70 to 6.82 | > 6.82
4 | O=C1CCC(N2Cc3c(OCc4ccc(-c5ccc(OC(F)(F)F)cc5)o4)cccc3C2=O)C(=O)N1 (stereo not shown) [Compound 42, 3-(1-oxo-4-((5-(4-trifluoromethoxyphenyl)furan-2-)methoxy)isoindolin-2-) piperidine-2,6-dione] | > 6.82 | > 6.82
5 | O=C1CCC(N2Cc3c(OCc4cn(-c5ccc(N6CCOCC6)cc5)nn4)cccc3C2=O)C(=O)N1 (stereo not shown) [Compound 19, 3-(4-((1-(4-morpholinophenyl)-1H-1,2,3-triazol-4-)methoxy)-1-oxoisoindolin-2-) piperidine-2,6-dione] | 4.70 to 6.82 | > 6.82
6 | O=C1CCC(N2Cc3c(OCc4cnc(-c5ccc(OC(F)(F)F)cc5)o4)cc(F)cc3C2=O)C(=O)N1 (stereo not shown) [Compound 80, 3-(6-fluoro-1-oxo-4-((2-(4-(trifluoromethoxy)phenyl)oxazol-5-yl)methoxy)isoindolin-2-yl) piperidine-2,6-dione] | – | > 6.82
7 | O=C1CCC(N2Cc3c(CCCc4cnc(-c5ccc(OC(F)(F)F)cc5)o4)cccc3C2=O)C(=O)N1 (stereo not shown) [Compound 63, 3-(1-oxo-4-(3-(2-(4-(trifluoromethoxy)phenyl)oxazol-5-yl)propyl)isoindolin-2-yl) piperidine-2,6-dione] | – | < 4.70
8 | COCCn1ccc2cc(-n3cc(COc4cccc5c4CN([C@@]4(C)CCC(=O)NC4=O)C5=O)nn3)ccc21 [Compound 36, (S)-3-(4-((1-(1-(2-methoxyethyl)-1H-indol-5-)-1H-1,2,3-triazol-4-)methoxy)-1-oxoisoindolin-2-)-3-methylpiperidine-2,6-dione] | – | 4.70 to 6.82
9 | O=C1CCC(N2Cc3c(OCc4cn(-c5cccc(O)c5)nn4)cccc3C2=O)C(=O)N1 (stereo not shown) [Compound 16, 3-(4-((1-(3-hydroxyphenyl)-1H-1,2,3-triazol-4-)methoxy)-1-oxoisoindolin-2-) piperidine-2,6-dione] | – | > 6.82
10 | O=C1CCC(N2Cc3c(OCc4cnc(-c5ccc(Cl)c(Cl)c5)o4)cccc3C2=O)C(=O)N1 (stereo not shown) [Compound 91, 3-(4-((2-(3,4-dichlorophenyl)oxazol-5-yl)methoxy)-1-oxoisoindol-2-yl) piperidine-2,6-dione] | – | > 6.82
11 | CN(C)CCn1ccc2cc(-n3cc(COc4cccc5c4CN(C4CCC(=O)NC4=O)C5=O)nn3)ccc21 (stereo not shown) [Compound 27, 3-(4-((1-(1-(2-(dimethylamino)ethyl)-1H-indol-5-)-1H-1,2,3-triazol-4-)methoxy)-1-oxoisoindolin-2-)piperidine-2,6-dione] | – | > 6.82
12 | C[C@@H](c1ccccc1)n1cc(COc2cccc3c2CN(C2CCC(=O)NC2=O)C3=O)nn1 (stereo partly shown) [Compound 51] | – | > 6.82
13 | Cc1c(COc2cccc3c2CN(C2CCC(=O)NC2=O)C3=O)cnn1-c1c(Cl)cc(OC(F)(F)F)cc1Cl (stereo not shown) [Compound 84, 3-(4-((1-(2,6-dichloro-4-(trifluoromethoxy)phenyl)-5-methyl-1H-pyrazol-4-yl)methoxy)-1-isoindolin-2-1) piperidine-2,6-dione] | – | > 6.82
14 | O=C1CCC(N2Cc3c(OCCc4cn(-c5ccc(OC(F)(F)F)cc5)nn4)cccc3C2=O)C(=O)N1 (stereo not shown) [Compound 61, 3-(1-oxo-4-(2-(1-(4-(trifluoromethoxy)phenyl)-1H-1,2,3-triazol-4-)ethoxy)isoindoline-2-) piperidine-2,6-dione] | – | > 6.82
